# According to patent US20150259645A1, “METHOD FOR INDUCING IL-2-FREE PROLIFERATION OF GAMMA DELTA T CELLS” (INSERM (INSTITUT NATIONAL DE LA SANTÉ ET DE LA RECHERCHE …, priority 2012, published 2015):
# Tested on: Vγ9Vδ2 T lymphocytes
# Assay: CFSE dilution proliferation assay in PBMC culture, flow cytometry
# Type: cell-based, human
# Conditions: 100 nM BrHPP; six days culture of PBMC; FIG. 1A
# Procedure: Fresh blood samples were collected from healthy donors, and PBMC were prepared on a Ficoll-Paque density gradient (Amersham Biosciences AB, Upssala, Sweden) by centrifugation (800 g, 30 min at room temperature).
# Cell cultures were performed in complete medium: RPMI 1640 supplemented by penicillin 100 UI/ml, streptomycin 100 μg/ml, L-glutamin 2 mM, sodium pyruvate 1 mM and 10% FCS.
# PBMC or PBL were labeled with 0.125 μM CFSE (Invitrogen, France) for 8 min at 37° C. and cultured in 96-well plates (3.10^5 cells per well) in 200 μl of complete medium with or without BrHPP [100 nM], IL-33 [0-1000 ng/ml] and with or without rhIL-2 [10 UI/ml] (Sanofi Aventis, France). After six days in culture CFSE dilution was evaluated in γδ T cells (CD3^+ γ9 TCR cells) by flow cytometry.
# The IL-33 forms used in this example was the natural cleavage product of human IL-33 (IL-33 aa 95-270) and the truncated form of human IL-33 (IL-33 aa 112-270).
# Anti-TCR γ9-APC and anti-CD3-Pacific blue were used to select Vγ9Vδ2 T lymphocytes by flow cytometry.
# We studied the effect of IL-33 in combination with the specific phosphoantigen, BrHPP, on the proliferation of human Vγ9Vδ2 T lymphocytes. […] After six days in culture, the proliferation of Vγ9Vδ2 T lymphocytes was analyzed by the reduction of the CFSE fluorescence intensity on the Vγ9Vδ2 T lymphocytes gated by flow cytometry.
smiles,measurement,value
CC(O)(CBr)CCOP(=O)(O)OP(=O)(O)O (stereo not shown) [BrHPP],proliferation of Vγ9Vδ2 T lymphocytes (CFSE dilution),induces the proliferation
